Assay results from patent publication US20240044922A1, “DEVICE AND METHODS FOR MEASURING PLATELET-FIBRIN CLOT CONTRACTION KINETICS” (University of Kentucky Research Foundation, priority 2022, published 2024).

Test system: washed mouse platelets
Assay: Clot contraction assay, time-lapse imaging of washed mouse platelets with thrombin, fibrinogen and CaCl2
Format: cell-based
Details: for AUC / Average Velocity / Clot Contraction Extent / Lag time / PHASE 1 % Contraction / PHASE 1 Rate 1 / PHASE 1 t1 / PHASE 2 % Contraction / PHASE 2 Rate 2 / PHASE 2 t2 / PHASE 3 % Contraction / PHASE 3 Rate 3: CaCl2 0.5 mM, fibrinogen 250 μg/mL
[1] = increased thrombin concentration, 10-200 mU/mL

Thrombin
Effect on extent of clot contraction [1]: remained unchanged
Effect on lag time [1]: decreased
Increase of Phase 1 (initiation) rate (over the thrombin concentration range tested): ~5 fold
AUC (thrombin 10 mU/mL): 5.62 AU
Average Velocity (thrombin 10 mU/mL): 0.82 %/min
Clot Contraction Extent (thrombin 10 mU/mL): 80.19%
Lag time (thrombin 10 mU/mL): 28.33 min
PHASE 1 % Contraction (thrombin 10 mU/mL): 4.93%
PHASE 1 Rate 1 (thrombin 10 mU/mL): 4.27 ×10^−3 %/min
PHASE 1 t1 (thrombin 10 mU/mL): 13.33 min
PHASE 2 % Contraction (thrombin 10 mU/mL): 23.95%
PHASE 2 Rate 2 (thrombin 10 mU/mL): 1.02 %/min
PHASE 2 t2 (thrombin 10 mU/mL): 36.00 min
PHASE 3 % Contraction (thrombin 10 mU/mL): 51.32%
PHASE 3 Rate 3 (thrombin 10 mU/mL): 3.93 ×10^−2 %/min
AUC (thrombin 20 mU/mL): 4.90 AU
Average Velocity (thrombin 20 mU/mL): 0.90 %/min
Clot Contraction Extent (thrombin 20 mU/mL): 88.45%
Lag time (thrombin 20 mU/mL): 19.33 min
PHASE 1 % Contraction (thrombin 20 mU/mL): 4.66%
PHASE 1 Rate 1 (thrombin 20 mU/mL): 4.67 ×10^−3 %/min
PHASE 1 t1 (thrombin 20 mU/mL): 11.33 min
PHASE 2 % Contraction (thrombin 20 mU/mL): 31.74%
PHASE 2 Rate 2 (thrombin 20 mU/mL): 1.33 %/min
PHASE 2 t2 (thrombin 20 mU/mL): 36.33 min
PHASE 3 % Contraction (thrombin 20 mU/mL): 52.05%
PHASE 3 Rate 3 (thrombin 20 mU/mL): 3.63 ×10^−2 %/min
AUC (thrombin 30 mU/mL): 4.10 AU
Average Velocity (thrombin 30 mU/mL): 0.94 %/min
Clot Contraction Extent (thrombin 30 mU/mL): 92.41%
Lag time (thrombin 30 mU/mL): 15.33 min
PHASE 1 % Contraction (thrombin 30 mU/mL): 6.03%
PHASE 1 Rate 1 (thrombin 30 mU/mL): 6.67 ×10^−3 %/min
PHASE 1 t1 (thrombin 30 mU/mL): 8.67 min
PHASE 2 % Contraction (thrombin 30 mU/mL): 20.91%
PHASE 2 Rate 2 (thrombin 30 mU/mL): 1.67 %/min
PHASE 2 t2 (thrombin 30 mU/mL): 22.00 min
PHASE 3 % Contraction (thrombin 30 mU/mL): 65.45%
PHASE 3 Rate 3 (thrombin 30 mU/mL): 2.70 ×10^−2 %/min
AUC (thrombin 50 mU/mL): 3.69 AU
Average Velocity (thrombin 50 mU/mL): 0.94 %/min
Clot Contraction Extent (thrombin 50 mU/mL): 92.51%
Lag time (thrombin 50 mU/mL): 10.67 min
PHASE 1 % Contraction (thrombin 50 mU/mL): 6.96%
PHASE 1 Rate 1 (thrombin 50 mU/mL): 27.33 ×10^−3 %/min
PHASE 1 t1 (thrombin 50 mU/mL): 6.67 min
PHASE 2 % Contraction (thrombin 50 mU/mL): 16.04%
PHASE 2 Rate 2 (thrombin 50 mU/mL): 1.97 %/min
PHASE 2 t2 (thrombin 50 mU/mL): 18.00 min
PHASE 3 % Contraction (thrombin 50 mU/mL): 69.51%
PHASE 3 Rate 3 (thrombin 50 mU/mL): 3.10 ×10^−2 %/min
AUC (thrombin 100 mU/mL): 3.32 AU
Average Velocity (thrombin 100 mU/mL): 0.97 %/min
Clot Contraction Extent (thrombin 100 mU/mL): 94.93%
Lag time (thrombin 100 mU/mL): 9.00 min
PHASE 1 % Contraction (thrombin 100 mU/mL): 6.55%
PHASE 1 Rate 1 (thrombin 100 mU/mL): 21.33 ×10^−3 %/min
PHASE 1 t1 (thrombin 100 mU/mL): 5.00 min
PHASE 2 % Contraction (thrombin 100 mU/mL): 19.72%
PHASE 2 Rate 2 (thrombin 100 mU/mL): 2.02 %/min
PHASE 2 t2 (thrombin 100 mU/mL): 18.67 min
PHASE 3 % Contraction (thrombin 100 mU/mL): 68.67%
PHASE 3 Rate 3 (thrombin 100 mU/mL): 3.43 ×10^−2 %/min
